The target of one test is SARS-CoV-2 3CLpro (Severe acute respiratory syndrome coronavirus 2, UniProt P0DTD1). Put plainly: biochemical. As to conditions: inhibition of SARS-CoV-2 3CLpro; 15 nM 3CLpro, 25 μM fluorogenic substrate, 37° C.; read-out: Inhibitory Activity (IC50).
Another test has as its system SARS-CoV-2. Put plainly: Anti-SARS-CoV-2 activity in A549 cells expressing the human ACE2 receptor (inhibition of SARS-CoV-2 replication). The class given is cell-based. Conditions: for pEC50: Severe acute respiratory syndrome coronavirus 2, A549-ACE2, 24 h, read-out: Antiviral Activity (EC50).

SMILES strings stand for the structures. pEC50, pIC50: −log10 of the molar value. Where a name gives a salt, the structure may show the parent alone.

As usually defined, the pIC50 is −log10 of the IC50, conventionally taken in molar units. `O=C(c1cc(Cl)cc([N+](=O)[O-])c1N[C@H]1CN(C(=O)c2cncc3ccccc23)CCC1(F)F)N1CC(O)C1` [Compound 43, (S)-(5-chloro-2-((4,4-difluoro-1-(isoquinoline-4-carbonyl)piperidin-3-yl)amino)-3-nitrophenyl)(3-hydroxyazetidin-1-yl)methanone]: the negative logarithm of the IC50 (pIC50) at SARS-CoV-2 3CLpro is > 7.00. Further, the “antiviral potency in A549 cells in comparison with compound Ref-2” value in the test with SARS-CoV-2 (A549 cells, versus Ref-2 (FIG. 7)) is “better antiviral potency”.
What is called pEC50 is the negative decadic logarithm of the EC50, by convention in mol/L. Consider `COC1CN(C(=O)c2cc(Cl)cc([N+](=O)[O-])c2N[C@H]2CN(C(=O)c3cncc4ccccc34)CCC2(F)F)C1` [Compound 44, (S)-(5-chloro-2-((4,4-difluoro-1-(isoquinoline-4-carbonyl)piperidin-3-yl)amino)-3-nitrophenyl)(3-methoxyazetidin-1-yl)methanone], for which, at SARS-CoV-2 3CLpro, the negative logarithm of the IC50 (pIC50) is > 7.00. In addition, in the test with SARS-CoV-2, the pEC50 was > 7.00.
`CN1CC[C@@H](NC(=O)c2cc(Br)cc([N+](=O)[O-])c2N[C@H]2CN(C(=O)c3cncc4ccccc34)CCC2(F)F)C1` [Compound 45, 5-bromo-2-(((S)-4,4-difluoro-1-(isoquinoline-4-carbonyl)piperidin-3-yl)amino)-N-((R)-1-methylpyrrolidin-3-yl)-3-nitrobenzamide hydrochloride]: the negative-log IC50 (pIC50) on SARS-CoV-2 3CLpro was > 7.00. Also, the pEC50 in the test with SARS-CoV-2 was > 7.00.
Consider `O=C(N[C@@H]1CCNC1)c1cc(Br)cc([N+](=O)[O-])c1N[C@H]1CN(C(=O)c2cncc3ccccc23)CCC1(F)F` [Compound 46, 5-bromo-2-(((S)-4,4-difluoro-1-(isoquinoline-4-carbonyl)piperidin-3-yl)amino)-3-nitro-N-((R)-pyrrolidin-3-yl) benzamide], for which the negative logarithm of the IC50 (pIC50) at SARS-CoV-2 3CLpro is > 7.00. Moreover, the pEC50 in the test with SARS-CoV-2 was > 7.00.
Regarding `CN(C)C1CN(C(=O)c2cc(Br)cc([N+](=O)[O-])c2N[C@H]2CN(C(=O)c3cncc4ccccc34)CCC2(F)F)C1` [Compound 47], on SARS-CoV-2 3CLpro, the pIC50 was > 7.00. Further, the pEC50 with SARS-CoV-2 was > 7.00.
`NC(=O)c1cc(Br)cc([N+](=O)[O-])c1N[C@@H]1CCCC[C@@H]1NC(=O)c1cncc2ccccc12` [Compound 53, N-((1S,2R)-2-((4-bromo-2-carbamoyl-6-nitrophenyl)amino)cyclohexyl)isoquinoline-4-carboxamide]: the negative logarithm of the IC50 (pIC50) at SARS-CoV-2 3CLpro is 6.00 to 7.00. Also, in the test with SARS-CoV-2, the negative-log EC50 (pEC50) was 5.00 to 6.00.
With `CNC(=O)c1cc(Br)cc([N+](=O)[O-])c1N[C@@H]1CCCC[C@@H]1NC(=O)c1cncc2ccncc12` [Compound 55, N-((1S, 2R)-2-((4-bromo-2-(methylcarbamoyl)-6-nitrophenyl)amino)cyclohexyl)-2,6-naphthyridine-4-carboxamide], at SARS-CoV-2 3CLpro, the negative-log IC50 (pIC50) is 6.00 to 7.00. Besides, the negative-log EC50 (pEC50) in the test on SARS-CoV-2 is 6.00 to 7.00.
Turning to `O=C(NCC(F)(F)F)c1cc(Br)cc([N+](=O)[O-])c1N[C@@H]1CCCC[C@@H]1NC(=O)c1cncc2ccccc12` [Compound 59, N-((1S, 2R)-2-((4-bromo-2-nitro-6-((2,2,2-trifluoroethyl)carbamoyl)phenyl)amino)cyclohexyl)isoquinoline-4-carboxamide], on SARS-CoV-2 3CLpro, the pIC50 was 6.00 to 7.00. Besides, in the test on SARS-CoV-2, the pEC50 was 6.00 to 7.00.
Consider `CC(NC(=O)c1cc(Br)cc([N+](=O)[O-])c1N[C@@H]1CCCC[C@@H]1NC(=O)c1cncc2ccccc12)C(F)(F)F` (stereo partly drawn) [Compound 60, N-((1S, 2R)-2-((4-bromo-2-nitro-6-((1,1,1-trifluoropropan-2-yl)carbamoyl)phenyl)amino)cyclohexyl)isoquinoline-4-carboxamide], for which, at SARS-CoV-2 3CLpro, the pIC50 was 6.00 to 7.00. For the same molecule, the pEC50 with SARS-CoV-2 was 6.00 to 7.00.
Take `O=C(NCC(F)F)c1cc(Br)cc([N+](=O)[O-])c1N[C@@H]1CCCC[C@@H]1NC(=O)c1cncc2ccccc12` [Compound 61, N-((IS, 2R)-2-((4-bromo-2-((2,2-difluoroethyl)carbamoyl)-6-nitrophenyl)amino)cyclohexyl)isoquinoline-4-carboxamide]: at SARS-CoV-2 3CLpro, the pIC50 is > 7.00. In the test on SARS-CoV-2, the negative-log EC50 (pEC50) was > 7.00.
As for `CNC(=O)c1cc(Br)cc([N+](=O)[O-])c1N[C@H]1CN(C(=O)c2cncc3ccccc23)CC(F)(F)C1` [Compound 62, (R)-5-bromo-2-((5,5-difluoro-1-(isoquinoline-4-carbonyl)piperidin-3-yl)amino)-N-methyl-3-nitrobenzamide], the pIC50 on SARS-CoV-2 3CLpro is 6.00 to 7.00. In the test on SARS-CoV-2, the negative-log EC50 (pEC50) was 6.00 to 7.00.
On to `CNC(=O)c1cc(Br)cc([N+](=O)[O-])c1N[C@@H]1CCN(C(=O)c2cncc3ccccc23)C1` [Compound 64, (R)-5-bromo-2-((1-(isoquinoline-4-carbonyl)pyrrolidin-3-yl)amino)-N-methyl-3-nitrobenzamide], for which the pIC50 at SARS-CoV-2 3CLpro was 6.00 to 7.00. In addition, the negative logarithm of the EC50 (pEC50) in the test with SARS-CoV-2 was 6.00 to 7.00.
On to `CNC(=O)c1cc(Br)cc([N+](=O)[O-])c1N1CCC2(CCN(C(=O)c3cncc4ccccc34)C2)C1` (centres unmarked) [Compound 66, 5-bromo-2-(7-(isoquinoline-4-carbonyl)-2,7-diazaspiro[4.4]nonan-2-yl)-N-methyl-3-nitrobenzamide], for which the pIC50 on SARS-CoV-2 3CLpro is 6.00 to 7.00. For the same molecule, the negative logarithm of the EC50 (pEC50) in the test on SARS-CoV-2 was 6.00 to 7.00.
On to `CNC(=O)c1cc(Br)cc([N+](=O)[O-])c1N1CC(F)(F)C2(CCN(C(=O)c3cncc4ccccc34)C2)C1` (centres unmarked) [Compound 67, 5-bromo-2-(4,4-difluoro-7-(isoquinoline-4-carbonyl)-2,7-diazaspiro[4.4]nonan-2-yl)-N-methyl-3-nitrobenzamide], for which, at SARS-CoV-2 3CLpro, the pIC50 is 6.00 to 7.00. Moreover, the pEC50 with SARS-CoV-2 was 6.00 to 7.00.
Consider `CNC(=O)c1cc(Br)cc([N+](=O)[O-])c1N[C@@H]1CCOC[C@@H]1NC(=O)c1cncc2ccccc12` [Compound 70, N-((3R, 4R)-4-((4-bromo-2-(methylcarbamoyl)-6-nitrophenyl)amino)tetrahydro-2H-pyran-3-yl)isoquinoline-4-carboxamide], for which the pIC50 on SARS-CoV-2 3CLpro was 6.00 to 7.00. The pEC50 in the test with SARS-CoV-2 is 6.00 to 7.00.
In the case of `CNC(=O)c1cc(Br)cc([N+](=O)[O-])c1N[C@@H]1CCCC[C@@H]1NC(=O)c1cncc(C(F)(F)F)c1` [Compound 72, N-((1S, 2R)-2 ((4-bromo-2-(methylcarbamoyl)-6-nitrophenyl)amino)cyclohexyl)-5-(trifluoromethyl)nicotinamide], at SARS-CoV-2 3CLpro, the negative logarithm of the IC50 (pIC50) was 5.00 to 6.00. The pEC50 with SARS-CoV-2 is < 5.00.
On to `CNC(=O)c1cc(Br)cc([N+](=O)[O-])c1N[C@H]1CN(C(=O)c2cncc3ccccc23)CC12CC2` [Compound 74, (R)-5-bromo-2-((5-(isoquinoline-4-carbonyl)-5-azaspiro[2,4]heptan-7-yl)amino)-N-methyl-3-nitrobenzamide], for which the pIC50 on SARS-CoV-2 3CLpro was 6.00 to 7.00. Besides, the negative-log EC50 (pEC50) in the test with SARS-CoV-2 was > 7.00.
Turning to `CNC(=O)c1cc(Br)cc([N+](=O)[O-])c1N[C@@H]1CCCN(C(=O)c2cncc3ccccc23)C1` [Compound 75, (R)-5-bromo-2-((1-(isoquinoline-4-carbonyl)piperidin-3-yl)amino)-N-methyl-3-nitrobenzamide], the pIC50 at SARS-CoV-2 3CLpro was > 7.00. Besides, the pEC50 in the test on SARS-CoV-2 was > 7.00.
`O=C(NC1CC(F)(F)C1)c1cc(Br)cc(C(F)(F)F)c1N[C@@H]1COCC[C@@H]1NC(=O)c1cncc2ccccc12` [Compound 79, N-((3S, 4S)-3-((4-bromo-2-((3,3-difluorocyclobutyl)carbamoyl)-6-(trifluoromethyl)phenyl)amino)tetrahydro-2H-pyran-4-yl)isoquinoline-4-carboxamide]: the negative-log IC50 (pIC50) on SARS-CoV-2 3CLpro is > 7.00. For the same molecule, the negative-log EC50 (pEC50) in the test with SARS-CoV-2 is 6.00 to 7.00.
